Data taken from PubChem BioAssay AID1963964 (Molecular Pharmacology Branch, DTP, NCI, 2024).

Tested on: 997726-040-R-J2-PDC tumor spheroids, viability
Assay: Anticancer human tumor 997726-040-R-J2-PDC patient-derived squamous cell lung carcinoma cell line growth inhibition [PI3K]
Conditions: spheroids with HUVEC and MSC; for viability, T/C: stronger effect = lower value
In short: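 High-throughput combination screen: PI3K inhibitors crossed with targeted small molecules on complex spheroids of tumor cells, HUVEC and MSCs at 37 degrees C, 5% CO2. Top concentration was at or near clinical Cmax (otherwise 10 microM), with half-log decrements.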

[1] = curve of first compound, second compound 0.0316 µM
[2] = curve of first compound, second compound 0.1 µM
[3] = curve of first compound, second compound 0.316 µM
[4] = curve of first compound, second compound 1 µM
[5] = second compound 0.0316 µM, first compound 0.0316 µM
[6] = second compound 0.0316 µM, first compound 0.1 µM
[7] = second compound 0.0316 µM, first compound 0.316 µM
[8] = second compound 0.0316 µM, first compound 1 µM
[9] = second compound 0.0316 µM, first compound 3.16 µM
[10] = second compound 0.0316 µM, first compound 10 µM
[11] = second compound 0.1 µM, first compound 0.0316 µM
[12] = second compound 0.1 µM, first compound 0.1 µM
[13] = second compound 0.1 µM, first compound 0.316 µM
[14] = second compound 0.1 µM, first compound 1 µM
[15] = second compound 0.1 µM, first compound 3.16 µM
[16] = second compound 0.1 µM, first compound 10 µM
[17] = second compound 0.316 µM, first compound 0.0316 µM
[18] = second compound 0.316 µM, first compound 0.1 µM
[19] = second compound 0.316 µM, first compound 0.316 µM
[20] = second compound 0.316 µM, first compound 1 µM
[21] = second compound 0.316 µM, first compound 3.16 µM
[22] = second compound 0.316 µM, first compound 10 µM
[23] = second compound 1 µM, first compound 0.0316 µM
[24] = second compound 1 µM, first compound 0.1 µM
[25] = second compound 1 µM, first compound 0.316 µM
[26] = second compound 1 µM, first compound 1 µM
[27] = second compound 1 µM, first compound 3.16 µM
[28] = second compound 1 µM, first compound 10 µM
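Note: spheroids exposed to compounds for seven days before readout.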

CC(Nc1ccc2c(c1)OCCn1cc(N3C(=O)OCC3C(F)F)nc1-2)C(N)=O (stereo unspecified)
viability, T/C (compound 0.00316 µM): 91.6% [middle of 8 runs]
viability, T/C (compound 0.01 µM): 81.8% [middle of 8 runs]
viability, T/C (compound 0.0316 µM): 61% [middle of 8 runs]
viability, T/C (compound 0.1 µM): 44.3% [middle of 8 runs]
viability, T/C (compound 0.316 µM): 32.9% [middle of 8 runs]
viability, T/C (compound 1 µM): 28.2% [middle of 8 runs]
IC50 (compound alone, run of 06/12/2023): 71.5 nM [middle of 8 runs]

Cn1ncc(Cl)c1-c1cc(C(=O)NC(CN)Cc2cccc(F)c2)sc1Cl (stereo unspecified) + CC(Nc1ncnc2nc[nH]c12)c1cc2cccc(Cl)c2c(=O)n1-c1ccccc1
IC50 [1]: 0.112 µM
IC50 [2]: 0.118 µM
IC50 [3]: 0.113 µM
IC50 [4]: 0.128 µM
IC50 (curve of first compound, second compound 3.16 µM): 0.0769 µM
IC50 (curve of first compound, second compound 10 µM): 0.0363 µM
viability, T/C [5]: 79.2%
viability, T/C [6]: 52.6%
viability, T/C [7]: 26.7%
viability, T/C [8]: 16.1%
viability, T/C [9]: 9.99%
viability, T/C [10]: 12.3%
viability, T/C [11]: 71.1%
viability, T/C [12]: 52.8%
viability, T/C [13]: 30.5%
viability, T/C [14]: 14.9%
viability, T/C [15]: 10.7%
viability, T/C [16]: 12.4%
viability, T/C [17]: 78.2%
viability, T/C [18]: 52.8%
viability, T/C [19]: 26.3%
viability, T/C [20]: 16%
viability, T/C [21]: 11.8%
viability, T/C [22]: 13.8%
viability, T/C [23]: 72.7%
viability, T/C [24]: 56.5%
viability, T/C [25]: 26.7%
viability, T/C [26]: 16.8%
viability, T/C [27]: 12.7%
viability, T/C [28]: 12.7%
viability, T/C (second compound 3.16 µM, first compound 0.0316 µM): 66.1%
viability, T/C (second compound 3.16 µM, first compound 0.1 µM): 44.6%
viability, T/C (second compound 3.16 µM, first compound 0.316 µM): 27.8%
viability, T/C (second compound 3.16 µM, first compound 1 µM): 15.2%
viability, T/C (second compound 3.16 µM, first compound 3.16 µM): 12.2%
viability, T/C (second compound 3.16 µM, first compound 10 µM): 12.8%
viability, T/C (second compound 10 µM, first compound 0.0316 µM): 51.5%
viability, T/C (second compound 10 µM, first compound 0.1 µM): 38.8%
viability, T/C (second compound 10 µM, first compound 0.316 µM): 21.2%
viability, T/C (second compound 10 µM, first compound 1 µM): 13.3%
viability, T/C (second compound 10 µM, first compound 3.16 µM): 10%
viability, T/C (second compound 10 µM, first compound 10 µM): 9.74%

CC(Cn1ccc(-c2ccc(C#N)c(Cl)c2)n1)NC(=O)c1cc(C(C)O)[nH]n1 (stereo unspecified) + CC(Nc1ccc2c(c1)OCCn1cc(N3C(=O)OCC3C(F)F)nc1-2)C(N)=O
IC50 (curve of first compound, second compound 0.00316 µM): > 10 µM
IC50 (curve of first compound, second compound 0.01 µM): > 10 µM
IC50 [1]: > 10 µM
IC50 [2]: < 0.0316 µM
IC50 [3]: < 0.0316 µM
IC50 [4]: < 0.0316 µM
viability, T/C (second compound 0.00316 µM, first compound 0.0316 µM): 85.8%
viability, T/C (second compound 0.00316 µM, first compound 0.1 µM): 88.3%
viability, T/C (second compound 0.00316 µM, first compound 0.316 µM): 89.4%
viability, T/C (second compound 0.00316 µM, first compound 1 µM): 91.4%
viability, T/C (second compound 0.00316 µM, first compound 3.16 µM): 97.3%
viability, T/C (second compound 0.00316 µM, first compound 10 µM): 85.4%
viability, T/C (second compound 0.01 µM, first compound 0.0316 µM): 78.3%
viability, T/C (second compound 0.01 µM, first compound 0.1 µM): 81%
viability, T/C (second compound 0.01 µM, first compound 0.316 µM): 80%
viability, T/C (second compound 0.01 µM, first compound 1 µM): 84.5%
viability, T/C (second compound 0.01 µM, first compound 3.16 µM): 84.1%
viability, T/C (second compound 0.01 µM, first compound 10 µM): 89.4%
viability, T/C [5]: 61.1%
viability, T/C [6]: 70.2%
viability, T/C [7]: 67.3%
viability, T/C [8]: 62.6%
viability, T/C [9]: 63.8%
viability, T/C [10]: 64.7%
viability, T/C [11]: 48.5%
viability, T/C [12]: 45.5%
viability, T/C [13]: 54.1%
viability, T/C [14]: 51.4%
viability, T/C [15]: 47.3%
viability, T/C [16]: 48.2%
viability, T/C [17]: 39%
viability, T/C [18]: 32.9%
viability, T/C [19]: 32.8%
viability, T/C [20]: 33.7%
viability, T/C [21]: 35.8%
viability, T/C [22]: 31.5%
viability, T/C [23]: 31.1%
viability, T/C [24]: 26.7%
viability, T/C [25]: 26.6%
viability, T/C [26]: 30.5%
viability, T/C [27]: 28.6%
viability, T/C [28]: 24.5%
